Measurements published in patent US8338565B2, “Macrocyclic compounds for inhibition of tumor necrosis factor alpha” (Ensemble Therapeutics Corporation, priority 2008, dated 2012).
Read-outs that look alike come from different tables or passages of the source. One block for each compound: values may come before it. Numbered stars: 1 amine (or outer) side, 2 acyl side, 3 side chain; on linkers, the order of the positions; unused ones are H or OH. Bridge positions count the residues as written; N and C are the ends. Square brackets hold non-standard residues; d marks the D form. Peptide text beside a SMILES is read from it. Phe(4-CF3) = N[C@@H](Cc1ccc(C(F)(F)F)cc1)C(=O)O; Bip = N[C@@H](Cc1ccc(-c2ccccc2)cc1)C(=O)O; dBip = N[C@H](Cc1ccc(-c2ccccc2)cc1)C(=O)O; dPhe(4-NH2) = Nc1ccc(C[C@@H](N)C(=O)O)cc1; Phe(4-NH2) = Nc1ccc(C[C@H](N)C(=O)O)cc1; d(hPhe) = N[C@H](CCc1ccccc1)C(=O)O; 2Thi = N[C@@H](Cc1cccs1)C(=O)O; d2Thi = N[C@H](Cc1cccs1)C(=O)O; Suc = O=C(CCC(=O)[*:2])[*:1]

Legend:
[1] = tested on: TNF-α (degradation of IkB in HeLa cells or A431 cells); assay: Human cell-based assay: inhibition of TNF-α induced degradation of IkB; settings: for inhibition at 5 µM: read-out: Inhibition at Various Compound Concentrations, 5 μM; for inhibition at 10 µM: read-out: Inhibition at Various Compound Concentrations, 10 μM
[2] = tested on: rat paw edema model; assay: Rat paw edema model (carrageenan), anti-inflammatory activity; format: in vivo, Sprague-Dawley (SD) rats
Protocol: Compounds 3, 4, 10 and 202 were tested in a rat paw edema model to determine anti-inflammatory activity. Seven groups (one for Vehicle A [15 mL PEG400, 3 mL Graves Grain alcohol (190 proof), 1.8 mL dimethylacetamide and 10.2 mL deionized water] alone as a negative control, one for Vehicle B [0.1M NaHCO3] alone as a negative control, one for each of the four test compounds dissolved in Vehicle A, and one for indomethacin dissolved in Vehicle B as a positive control), each group containing six Sprague-Dawley (SD) rats (180-200 g) randomized by weight. Initial paw volumes were measured by placing the right hind limb of the rat up to the top of the hock in a beaker of water sitting on a scale that had been tared to zero and recording the readout.
Rats were pre-treated with either i) one of the test compounds, or ii) a positive or negative control. Vehicle A alone and test compound dissolved in Vehicle A (Compound 3-1.0 mg/kg; Compound 4-0.4 mg/kg; Compound 10-0.5 mg/kg; Compound 202-0.3 mg/kg) were administered by intravenous injection. Vehicle B alone and indomethacin (5 mg/kg in 0.1M NaHCO3) was administered by intraperitoneal injection. Thirty minutes after this pretreatment, rats were anesthetized and injected with 0.1 mL of carrageenan (10 mg/mL in water) in the subplantar region of the right hind foot using a ½ inch 26 gauge needle attached to a 1 cc syringe.
At 2, 4 and 6 hours post-carrageenan injection, the right hind foot of each rat was measured for paw volume as described above.
We next investigated the effect of varying intravenous doses of Compound 202 (0.05, 0.10, 0.30, and 1.00 mg/kg) in the same model using the same protocol (6 rats per group). […] We also investigated the affect of oral dosing (10 mg/kg) of Compound 202 in the same model. For oral dosing, a 2.5 mg/mL suspension of Compound 202 was prepared in Vehicle A. Rats were orally administered 4 mL/kg of that suspension.

[3] = molecular target: T1, TNFα / TNFα receptor (TNFα R1/Fc) (Homo sapiens, UniProt P01375); assay: Inhibition of binding of TNFα to the TNFα receptor (plate ELISA competition); settings: Table 2; read-out: Activity (IC50, inhibition of TNFα binding to TNFα R1/Fc)
T1 construct: purchased R&D Systems
Method in brief: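 Plates were coated with TNFα at 15 nM. Test compound and 8.33 nM receptor-Fc (PBST, 2% DMSO) were first mixed in solution for 30 min at room temperature, then transferred to the plates for another 30 min. Competition was read by absorbance at 450 nm after HRP anti-human IgG Fc detection with TMB.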

[4] = 5 μM compound, HeLa or A431 cells
[5] = 10 μM compound, HeLa or A431 cells
[6] = Table 4, 1 mg/kg IV, 2 h post-carrageenan
[7] = Table 4, 1 mg/kg IV, 4 h post-carrageenan
[8] = Table 4, 1 mg/kg IV, 6 h post-carrageenan
[9] = Table 5, 1 mg/kg IV, 2 h post-carrageenan
[10] = Table 5, 1 mg/kg IV, 4 h post-carrageenan
[11] = Table 5, 1 mg/kg IV, 6 h post-carrageenan
[12] = Table 8, 1 mg/kg IV, 2 h post-carrageenan
[13] = Table 8, 1 mg/kg IV, 4 h post-carrageenan
[14] = Table 8, 1 mg/kg IV, 6 h post-carrageenan

T1 sequence (P01375 77-233 limits assumed, species assumed): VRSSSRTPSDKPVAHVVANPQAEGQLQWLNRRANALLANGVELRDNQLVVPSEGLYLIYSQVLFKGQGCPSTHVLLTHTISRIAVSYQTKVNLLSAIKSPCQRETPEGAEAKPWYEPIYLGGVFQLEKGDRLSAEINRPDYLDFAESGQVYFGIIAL

IC50 [3]: < 10 µM
Compound: O=C(O)CCCNC(=O)[C@@H]1Cc2ccc(cc2)OCC(=O)N[C@@H](Cc2cccs2)C(=O)N[C@@H](Cc2ccc(-c3ccccc3)cc2)C(=O)N[C@@H](Cc2ccccc2)C(=O)N1 [Compound 342]
inhibition at 5 µM [1, 4]: < 10% | inhibition at 10 µM [1, 5]: 10 to 50% | Change in Paw Volume [2, 6]: 1.36 ± 0.10 mL | Change in Paw Volume [2, 7]: 1.49 ± 0.20 mL | Change in Paw Volume [2, 8]: 1.51 ± 0.15 mL

IC50 [3]: 10 to 30 µM
Compound: O=C1CCC(=O)N[C@H](Cc2cccs2)C(=O)N[C@@H](Cc2ccc(-c3ccccc3)cc2)C(=O)N[C@H](Cc2ccccc2)C(=O)N[C@H](C(=O)N[C@@H](Cc2ccccc2)C(=O)O)Cc2ccc(cc2)N1 [Compound 10] ([d2Thi][Bip][dF][Phe(4-NH2)]F-OH; linker N-4 via Suc)
inhibition at 25 µM ([1]; 25 μM compound, HeLa or A431 cells, read-out: Inhibition at Various Compound Concentrations, 25 μM): > 80% | Change in Paw Volume ([2]; Table 3, 0.5 mg/kg IV, 2 h post-carrageenan): 0.54 ± 0.23 mL | Change in Paw Volume ([2]; Table 3, 0.5 mg/kg IV, 4 h post-carrageenan): 1.11 ± 0.31 mL | Change in Paw Volume ([2]; Table 3, 0.5 mg/kg IV, 6 h post-carrageenan): 1.23 ± 0.28 mL

Compound: O=C1COc2ccc(cc2)C[C@@H](C(=O)O)NC(=O)[C@H](Cc2ccccc2)NC(=O)[C@H](Cc2ccc(-c3ccc(NC(=O)OCc4ccccc4)cc3)cc2)NC(=O)[C@H](Cc2cccs2)N1 [Compound 362]
inhibition at 5 µM [1]: < 10% | inhibition at 10 µM [1]: 10 to 50% | Change in Paw Volume [2, 9]: 1.17 ± 0.07 mL | Change in Paw Volume [2, 10]: 1.22 ± 0.21 mL | Change in Paw Volume [2, 11]: 1.15 ± 0.19 mL | IC50 [3]: < 10 µM

IC50 [3]: < 10 µM
Compound: O=C1CCC(=O)N[C@H](CCc2ccccc2)C(=O)N[C@@H](Cc2ccc(C(F)(F)F)cc2)C(=O)N[C@H](Cc2ccccc2)C(=O)N[C@H](C(=O)N[C@@H](Cc2ccccc2)C(=O)O)Cc2ccc(cc2)N1 [Compound 11] ([d(hPhe)][Phe(4-CF3)][dF][Phe(4-NH2)]F-OH; linker N-4 via Suc)
inhibition at 5 µM [1, 4]: 10 to 50% | inhibition at 10 µM [1, 5]: 50 to 80% | Change in Paw Volume [2, 6]: 1.37 ± 0.16 mL | Change in Paw Volume [2, 7]: 1.43 ± 0.13 mL | Change in Paw Volume [2, 8]: 1.45 ± 0.08 mL

Compound: O=C1COc2ccc(cc2)C[C@@H](C(=O)O)NC(=O)[C@H](Cc2ccc(O)cc2)NC(=O)[C@H](Cc2ccc(-c3ccccc3)cc2)NC(=O)[C@H](Cc2cccs2)N1 [Compound 428]
inhibition at 5 µM [1]: < 10% | inhibition at 10 µM [1]: < 10% | Change in Paw Volume [2, 12]: 1.27 ± 0.15 mL | Change in Paw Volume [2, 13]: 1.43 ± 0.22 mL | Change in Paw Volume [2, 14]: 1.39 ± 0.22 mL | IC50 [3]: < 10 µM

IC50 [3]: < 10 µM
Compound: O=C1COc2ccc(cc2)C[C@@H](C(=O)O)NC(=O)[C@H](CCc2ccccc2)NC(=O)[C@@H](Cc2ccc(-c3ccccc3)cc2)NC(=O)[C@H](Cc2ccncc2)N1 [Compound 506]
Change in Paw Volume [2, 9]: 0.74 ± 0.18 mL | Change in Paw Volume [2, 10]: 1.05 ± 0.17 mL | Change in Paw Volume [2, 11]: 0.86 ± 0.15 mL

IC50 [3]: < 10 µM
Compound: O=C1CCC(=O)N[C@@H](Cc2cccs2)C(=O)N[C@H](Cc2ccc(-c3ccccc3)cc2)C(=O)N[C@@H](Cc2ccccc2)C(=O)N[C@H](C(=O)O)Cc2ccc(cc2)N1 [Compound 493] ([2Thi][dBip]F[Phe(4-NH2)]-OH; linker N-4 via Suc)
Change in Paw Volume [2, 12]: 1.04 ± 0.15 mL | Change in Paw Volume [2, 13]: 1.12 ± 0.10 mL | Change in Paw Volume [2, 14]: 1.03 ± 0.15 mL

IC50 [3]: 10 to 30 µM
Compound: O=C1CCC(=O)N[C@@H](Cc2cccs2)C(=O)N[C@H](Cc2ccc(-c3ccccc3)cc2)C(=O)N[C@@H](Cc2ccccc2)C(=O)N[C@@H](C(=O)O)Cc2ccc(cc2)N1 [Compound 500] ([2Thi][dBip]F[dPhe(4-NH2)]-OH; linker N-4 via Suc)
Change in Paw Volume [2, 12]: 0.98 ± 0.24 mL | Change in Paw Volume [2, 13]: 1.07 ± 0.21 mL | Change in Paw Volume [2, 14]: 0.98 ± 0.14 mL
